# According to US20230068414A1, “Herbicide combinations comprising glufosinate and trifludimoxazin” (BASF SE, priority 2020, published 2023):
# What was measured:
# [1] = test system: Amaranthus palmeri (AMAPA); assay: Greenhouse postemergence weed control, percent injury vs untreated control; assay type: in vivo
# Description: (§1) For post-emergence treatments, glufosinate and trifludimoxazin, which had been suspended in water, were applied using spray nozzles providing fine to coarse droplets.
# (§2) The herbicide compounds applied in the examples were used as experimental or commercially available solo or premix formulations which have been diluted with tap water to a suitable concentration. Glufosinate was used as a commercial SL formulation containing 280 g ai/l of glufosinate (Liberty 280 SL, BASF). While the PPO herbicide Vulcarus containing 500 g ai/l trifludimoxazin was used (Vulcarus 500 SC, BASF) formulation.
# (§3) The evaluation for plant injury or damage caused by the chemical compositions was carried out using a scale from 0-100% when compared with the untreated control plants. Here, 0 means no damage and 100 means complete destruction of the plants.
# (§4) 22., E=X+Y−(X*Y/100), where
# (§5) X=effect in percent using herbicide A at an application rate of a;
# (§6) Y=effect in percent using herbicide B at an application rate of b;
# (§7) E=expected effect (in %) of A+B at application rates a+b.
# (§8) The value E corresponds to the effect (plant damage or injury) which is to be expected if the activity of the individual compounds is just additive. If the observed effect is higher than the value E calculated according to Colby, a synergistic effect is present.
# (§9) Weed Control of Glufosinate Plus Trifludimoxazin Mixtures (Greenhouse) Seedlings of velvetleaf (Abutilon theophrasti; ABUTH) and Palmer amaranth (Amaranthus palmeri; AMAPA were treated with postemergence applications of either glufosinate at 246 g ai/ha, trifludimoxazin at 6.25 g ai/ha, or the combination of glufosinate (246 g ai/ha) and trifludimoxazin (6.25 g ai/ha), respectively, when they were 5-10 cm in height. All glufosinate treatments contained 1% (w/v) ammonium sulfate and solo trifludimoxazin treatments contained 1% (w/v) ammonium sulfate plus 1% (v/v) MSO surfactant. Plants were placed in a completely randomized design with four replications per treatment. Percent injury data was collected 21 days after treatment (DAT).
# [2] = test system: Abutilon theophrasti (ABUTH); assay: as above; assay type: in vivo
# Description: as §1, §2, §3, §4, §5, §6, §7, §8, §9
SMILES,"inhibition at 246 g/ha ([1]; Amaranthus palmeri, post-emergence, 504 h, read-out: Solo Glufosinate (246 g ai/ha) % activity) [%]","inhibition at 246 g/ha ([2]; Abutilon theophrasti, post-emergence, 504 h, read-out: Solo Glufosinate (246 g ai/ha) % activity) [%]","Solo Trifludimoxazin (6.25 g ai/ha) % activity ([1]; AMAPA seedlings 5-10 cm, postemergence, 6.25 g ai/ha, 1% ammonium sulfate plus 1% MSO, 21 DAT) [%]","Solo Trifludimoxazin (6.25 g ai/ha) % activity ([2]; ABUTH seedlings 5-10 cm, postemergence, 6.25 g ai/ha, 1% ammonium sulfate plus 1% MSO, 21 DAT) [%]"
"CP(=O)(O)CCC(N)C(=O)O (racemic) [Glufosinate, (2RS)-2-amino-4-[hydroxy(methyl)phosphinoyl]butyric acid]",48,23,,
C#CCN1C(=O)C(F)(F)Oc2cc(F)c(-n3c(=O)n(C)c(=S)n(C)c3=O)cc21 [Trifludimoxazin],,,63,70
